Laboratory results taken from patent publication US20070298994A1, “Use of 3-Mercapto-3-Methyl-Hexan-1-Ol for Use as Malodour Standard” (SYMRISE GMBH & CO. KG, priority 2004, published 2007).

Experiment: Raw material test against sweat odour (masking of malodour standard, assessor panel)
Conditions: not given
For `CCCCCCCC1CCC(=O)O1` (centres unmarked) [5-HEPTYL-2-DIHYDROFURANONE], the “Increase In intensity” value was 1.1 and the Odour reduction value was 3.8. For `C/C=C/C(=O)OC(C)C1CCCCC1` (centres unmarked) [CROTONIC ACID-1-CYCLOHEXYL ETHYL ESTER], the “Increase In intensity” value was 0.8 and the Odour reduction value was 3.7.

Same assay, conditions: Table 1; 1 μl fragrance + 5 μl 3-mercapto-3-methyl-hexan-1-ol (0.1% in DPG) in 7 l air, 15 h at approx. 20° C.; scale 1 to 9, malodour standard mixture = 6; mean of at least 8 assessors
With `CCCCCC1CCC(=O)O1` (centres unmarked) [5-PENTYLDIHYDROFURAN-2-ONE] the “Increase In intensity” value was −0.8 and the Odour reduction value was 4.1. With `CC(=O)c1cc2c(cc1C)C(C)(C)C(C)CC2(C)C` (centres unmarked) [6-ACETYL-1,1,2,4,4,7-[…]] the “Increase In intensity” value was 0.0 and the Odour reduction value was 3.1. In the case of `C=CCCCCCCCCC=O` [10-UNDECENAL], the “Increase In intensity” value is reported as 1.6 and the Odour reduction value is reported as 3.3. For `C=CCOC(=O)COC1CCCCC1` [(CYCLOHEXYLOXY)-ACETIC ACID-2-PROPENYL ESTER], the “Increase In intensity” value was −0.5 and the Odour reduction value was 4.3. For `CCC/C=C/C=O` [(E)-2-HEXENAL], the “Increase In intensity” value was −0.2 and the Odour reduction value was 3.1. In the case of `C/C(=C\C#N)CCc1ccccc1` [(E)-3-METHYL-5-PHENYL-2-PENTENE NITRILE], the “Increase In intensity” value is reported as 1.2 and the Odour reduction value is reported as 5.1. In the case of `O=C1CCCCCC/C=C/CCCCCCC1` [(E)-8-CYCLOHEXADECEN-1-ONE], the “Increase In intensity” value is reported as 0.2 and the Odour reduction value is reported as 4.0. In the case of `CCCC1CCOC(C)S1` (centres unmarked) [(Z)-2-METHYL-4-PROPYL-1,3-OXATHIANE], the “Increase In intensity” value is reported as 0.0 and the Odour reduction value is reported as 3.1. For `CCCCCCCCCC/C=C\C#N` [(Z)-2-TRIDECENE NITRILE], the “Increase In intensity” value was 1.6 and the Odour reduction value was 3.8. In the case of `CC/C=C\CCOCCC#N` [(Z)-3-(3-HEXENYLOXY)-PROPANENITRILE], the “Increase In intensity” value is reported as 1.5 and the Odour reduction value is reported as 5.0. In the case of `CC(=O)OC(C)c1ccccc1` (centres unmarked) [ACETIC ACID-1-PHENYLETHYL ESTER], the “Increase In intensity” value is reported as −0.4 and the Odour reduction value is reported as 4.0. With `CC(=O)OCC(C)CC(C)(C)c1ccccc1` (centres unmarked) [ACETIC ACID-2,4-DIMETHYL-4-PHENYLPENTYL ESTER] the “Increase In intensity” value was 1.6 and the Odour reduction value was 3.4. With `CC(=O)OCCc1ccccc1` [ACETIC ACID-2-PHENYLETHYL ESTER] the “Increase In intensity” value was 1.0 and the Odour reduction value was 4.0. With `CC/C=C/CCOC(C)=O` [ACETIC ACID-3(E)-HEXENYL ESTER] the “Increase In intensity” value was 1.3 and the Odour reduction value was 3.1. In the case of `CC(=O)OCCC(C)C` [ACETIC ACID-3-METHYLBUTYL ESTER], the “Increase In intensity” value is reported as 1.3 and the Odour reduction value is reported as 5.8. In the case of `CC(=O)OC(C)(C)C1CC=C(C)CC1` (stereo not drawn) [ACETIC ACID-ALPHA-TERPINYL ESTER], the “Increase In intensity” value is reported as −0.3 and the Odour reduction value is reported as 4.0. With `CC(=O)O[C@H]1CC[C@H](C(C)(C)C)CC1` [ACETIC-TRANS-4-TERT.-BUTYL CYCLOHEXYL ESTER] the “Increase In intensity” value was 0.2 and the Odour reduction value was 5.1. In the case of `C=CCOC(=O)CCCCC` [ALLYL CAPRONATE], the “Increase In intensity” value is reported as 1.0 and the Odour reduction value is reported as 3.0. For `C=CCOC(=O)CCCCCC` [ALLYL HEPTYLATE], the “Increase In intensity” value was −0.5 and the Odour reduction value was 3.0. In the case of `C=CC(C)(C#N)Cc1ccccc1` (stereo not drawn) [ALPHA-ETHENYL-ALPHA-METHYL-BENZENE PROPANE NITRILE], the “Increase In intensity” value is reported as 1.0 and the Odour reduction value is reported as 4.2. With `Cc1cccc(CC(C)(C)C(C)O)c1` (stereo not drawn) [ALPHA.BETA.BETA.3-TETRAMETHYL-BENZENE PROPANOL] the “Increase In intensity” value was 0.2 and the Odour reduction value was 4.6. With `CCOC(=O)OC1C(C)CCC(C)C1C` (centres unmarked) [CARBONIC ACID-ETHYL-2.3.6-TRIMETHYL CYCLOHEXYL ESTER] the “Increase In intensity” value was 1.0 and the Odour reduction value was 4.6. With `C/C=C/C(=O)OC(C)CC(C)C` (centres unmarked) [CROTONIC ACID-4-METHYL-2-[…]] the “Increase In intensity” value was −0.5 and the Odour reduction value was 3.5. In the case of `COC1(OC)CCCCCCCCCCC1` [CYCLODODECANONE DIMETHYL KETAL], the “Increase In intensity” value is reported as 1.5 and the Odour reduction value is reported as 4.0. With `COC1CCCCCCCCCCC1` [CYCLODODECYL METHYL ETHER] the “Increase In intensity” value was 0.7 and the Odour reduction value was 3.1. With `CCCCCCCCCC=O` [DECANAL] the “Increase In intensity” value was 0.2 and the Odour reduction value was 3.0. In the case of `C=CCc1ccc(O)c(OC)c1` [EUGENOL], the “Increase In intensity” value is reported as 0.7 and the Odour reduction value is reported as 6.0. With `CC(C)COC(=O)C=Cc1ccccc1` [ISOBUTYL CINNAMATE] the “Increase In intensity” value was 0.8 and the Odour reduction value was 3.1. For `C=CC(C)(O)CCC=C(C)C` (centres unmarked) [LINALOOL], the “Increase In intensity” value was 1.0 and the Odour reduction value was 5.0. For `CC(C)CCOC(=O)c1ccccc1O` [SALICYLIC ACID 3-METHYLBUTYL ESTER], the “Increase In intensity” value was 1.0 and the Odour reduction value was 3.3. In the case of `CCCCCCOC(=O)c1ccccc1O` [SALICYLIC ACID HEXYL ESTER], the “Increase In intensity” value is reported as 1.7 and the Odour reduction value is reported as 3.7. For `CC(C)=CCOC(=O)c1ccccc1O` [SALICYLIC ACID PRENYL ESTER], the “Increase In intensity” value was 0.2 and the Odour reduction value was 3.6.

Same assay, conditions: Table 2 (raw materials without adequate malodour-reducing action); 1 μl fragrance + 5 μl 3-mercapto-3-methyl-hexan-1-ol (0.1% in DPG) in 7 l air, 15 h; scale 1 to 9, standard = 6
In the case of `CC(=O)OCc1ccccc1` [BENZYL ACETATE, reference compound], the Increase in intensity is reported as 0.4 and the Malodour reduction value is reported as 2.5. With `OCc1ccccc1` [BENZYL ALCOHOL, reference compound] the Increase in intensity was 2.0 and the Malodour reduction value was −2.0. `CC(C)=CCCC(C)CCO` (centres unmarked) [CITRONELLOL, reference compound] gave an Increase in intensity of −0.2 and a Malodour reduction value of 2.2. `CCCCCCCCCCCC=O` [DODECANAL, reference compound] showed an Increase in intensity of 2.0 and a Malodour reduction value of 2.0. `CCCCCCCC=O` [OCTANAL, reference compound] showed an Increase in intensity of 0.9 and a Malodour reduction value of 2.4. Compound `OCCCc1ccccc1` [PHENYL PROPYL ALCOHOL, reference compound] has an Increase in intensity of 1.0 and a Malodour reduction value of 0.0.

Same assay, conditions: Table 3 (adequate malodour-reducing action but significant increase in intensity); 1 μl fragrance + 5 μl 3-mercapto-3-methyl-hexan-1-ol (0.1% in DPG) in 7 l air, 15 h; scale 1 to 9, standard = 6
Work on `CCCCCOC(=O)c1ccccc1O` [AMYL SALICYLATE, reference compound] yielded an Increase in intensity of 2.4 and a Malodour-reduction value of 3.6. `CC(=O)/C(C)=C/C1C(C)=CCCC1(C)C` (centres unmarked) [GAMMA-METHYLICONE, reference compound] gave an Increase in intensity of 2.1 and a Malodour-reduction value of 4.0. Compound `CC(=O)OC/C=C(\C)CCC=C(C)C` [GERANYL ACETATE, reference compound] has an Increase in intensity of 2.2 and a Malodour-reduction value of 3.0. For `CC(C)=CCCC(C)=CC#N` [GERANYL NITRILE, 3,7-dimethyl-2,6-octadiene-1-nitrile, reference compound], the Increase in intensity was 3.0 and the Malodour-reduction value was 5.0. In the case of `CC(=O)OC1CC(C)CCC1C(C)C` (centres unmarked) [MENTHYL ACETATE, reference compound], the Increase in intensity is reported as 2.9 and the Malodour-reduction value is reported as 4.4. For `CCCCCCCCC=O` [NONANAL, reference compound], the Increase in intensity was 2.1 and the Malodour-reduction value was 3.0.

Same assay, conditions: Table 4, tests with the mixtures (Example 2), according to the raw material test method
For `CCOC(=O)c1ccccc1C(=O)OCC` [DEP, diethyl phthalate, reference compound], the Increase in intensity was −0.1 and the Malodour reduction value was 0.0.

Same assay, conditions: prior-art fragrances examined by the applicant
For `CC(C)=CCCC(C)=CC#N` [GERANYL NITRILE, 3,7-dimethyl-2,6-octadiene-1-nitrile, reference compound], the “intrinsic odour / perfumistic impression (in words)” value was “strong intrinsic odour” and the “reduction in the bad odour based on 3-mercapto-3-methyl-hexan-1-ol (in words)” value was “does show a reduction in the bad odour”.

Same assay, conditions: solvents
With `CCOC(=O)c1ccccc1C(=O)OCC` [DEP, diethyl phthalate, reference compound] the “effect on the intensity of the bad odour” value was “no effect” and the “effect on the total intensity” value was “no effect”.
